Key:
Test in all cases: relative viability (nuclei count vs DMSO), 5 days (fraction); higher = more cells survive
[1] = compound: O=C(Nc1cc(C(F)(F)F)cc(C(F)(F)F)c1)c1cc(Cl)ccc1O [IMD-0354] + CC(=O)Nc1cccc(-n2c(=O)n(C3CC3)c(=O)c3c(Nc4ccc(I)cc4F)n(C)c(=O)c(C)c32)c1 [Trametinib] (partner 0.02 µM)
Method in brief: (§1)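 Lung cancer cell lines, seeded in 1536-well plates, were treated the following day by pin tool with a single drug or with five library-drug doses (not always all listed) in √10 steps on top of a fixed anchor-drug dose. Cells were fixed and nuclei stained in one step after 5 days, and nuclei were counted. Relative viability is the nuclei count for treated wells divided by that for vehicle wells, reported as medians of duplicate plates.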

[2] = compound: O=C(Nc1cc(C(F)(F)F)cc(C(F)(F)F)c1)c1cc(Cl)ccc1O [IMD-0354] + C[C@]1(O)C[C@@H](c2nc(-c3ccc4ccc(-c5ccccc5)nc4c3)c3c(N)nccn32)C1 [Linsitinib] (partner 1 µM)
Method in brief: as §1

[3] = compound: O=C(Nc1cc(C(F)(F)F)cc(C(F)(F)F)c1)c1cc(Cl)ccc1O [IMD-0354] + Nc1ncn([C@H]2C[C@H](O)[C@@H](CO)O2)c(=O)n1 [Decitabine] (partner 2 µM)
Method in brief: as §1

[4] = compound: Cc1cnc(CNC(=O)c2c(=O)c3ccc(N4CCCN(C)CC4)nc3n3c2sc2ccccc23)cn1 [CX-5461] + CCNC(=O)c1noc(-c2cc(C(C)C)c(O)cc2O)c1-c1ccc(CN2CCOCC2)cc1 [Luminespib] (partner 0.01 µM)
Method in brief: as §1

NCI-H650 was tested, and the relative viability ([1]; first compound 0.04 µM) was 0.987, the relative viability ([1]; first compound 0.1265 µM) was 1.07 and the relative viability ([1]; first compound 0.4 µM) was 1.05. It also gave a relative viability ([1]; first compound 1.265 µM) of 0.681, a relative viability ([1]; first compound 4 µM) of 0.232 and a relative viability ([2]; first compound 0.04 µM) of 1.01. It also gave a relative viability ([2]; first compound 0.1265 µM) of 0.911, a relative viability ([2]; first compound 0.4 µM) of 0.505 and a relative viability ([2]; first compound 1.265 µM) of 0.249. For the same cell line, the relative viability ([2]; first compound 4 µM) was 0.223, the relative viability ([3]; first compound 0.04 µM) was 0.303 and the relative viability ([3]; first compound 0.1265 µM) was 0.3. The relative viability ([3]; first compound 0.4 µM) was 0.346, the relative viability ([3]; first compound 1.265 µM) was 0.288 and the relative viability ([3]; first compound 4 µM) was 0.201. The relative viability ([4]; first compound 0.01 µM) was 0.767, the relative viability ([4]; first compound 0.03162 µM) was 0.743 and the relative viability ([4]; first compound 0.1 µM) was 0.799. It also gave a relative viability ([4]; first compound 0.3162 µM) of 0.711 and a relative viability ([4]; first compound 1 µM) of 0.364.

Work on NCI-H661 yielded a relative viability ([1]; first compound 0.04 µM) of 0.532, a relative viability ([1]; first compound 0.1265 µM) of 0.512 and a relative viability ([1]; first compound 0.4 µM) of 0.397. It also gave a relative viability ([1]; first compound 1.265 µM) of 0.308, a relative viability ([1]; first compound 4 µM) of 0.256 and a relative viability ([2]; first compound 0.04 µM) of 0.65. For the same cell line, the relative viability ([2]; first compound 0.1265 µM) was 0.632, the relative viability ([2]; first compound 0.4 µM) was 0.57 and the relative viability ([2]; first compound 1.265 µM) was 0.532. For the same cell line, the relative viability ([2]; first compound 4 µM) was 0.251, the relative viability ([3]; first compound 0.04 µM) was 0.567 and the relative viability ([3]; first compound 0.1265 µM) was 0.534. The relative viability ([3]; first compound 0.4 µM) was 0.389, the relative viability ([3]; first compound 1.265 µM) was 0.244 and the relative viability ([3]; first compound 4 µM) was 0.233. It also gave a relative viability ([4]; first compound 0.01 µM) of 0.928, a relative viability ([4]; first compound 0.03162 µM) of 0.879 and a relative viability ([4]; first compound 0.1 µM) of 0.792. The relative viability ([4]; first compound 0.3162 µM) was 0.575 and the relative viability ([4]; first compound 1 µM) was 0.433.

NCI-H727 showed a relative viability ([1]; first compound 0.04 µM) of 0.38, a relative viability ([1]; first compound 0.1265 µM) of 0.323 and a relative viability ([1]; first compound 0.4 µM) of 0.365. It also gave a relative viability ([1]; first compound 1.265 µM) of 0.351, a relative viability ([1]; first compound 4 µM) of 0.394 and a relative viability ([2]; first compound 0.04 µM) of 0.161. The relative viability ([2]; first compound 0.1265 µM) was 0.257, the relative viability ([2]; first compound 0.4 µM) was 0.281 and the relative viability ([2]; first compound 1.265 µM) was 0.206. The relative viability ([2]; first compound 4 µM) was 0.233, the relative viability ([3]; first compound 0.04 µM) was 0.827 and the relative viability ([3]; first compound 0.1265 µM) was 0.864. For the same cell line, the relative viability ([3]; first compound 0.4 µM) was 0.788, the relative viability ([3]; first compound 1.265 µM) was 0.502 and the relative viability ([3]; first compound 4 µM) was 0.405. The relative viability ([4]; first compound 0.01 µM) was 0.664, the relative viability ([4]; first compound 0.03162 µM) was 0.439 and the relative viability ([4]; first compound 0.1 µM) was 0.384. The relative viability ([4]; first compound 0.3162 µM) was 0.58 and the relative viability ([4]; first compound 1 µM) was 0.321.

NCI-H838 was tested, and the relative viability ([1]; first compound 0.04 µM) was 0.518, the relative viability ([1]; first compound 0.1265 µM) was 0.466 and the relative viability ([1]; first compound 0.4 µM) was 0.236. The relative viability ([1]; first compound 1.265 µM) was 0.204, the relative viability ([1]; first compound 4 µM) was 0.166 and the relative viability ([2]; first compound 0.04 µM) was 1.18. For the same cell line, the relative viability ([2]; first compound 0.1265 µM) was 0.969, the relative viability ([2]; first compound 0.4 µM) was 0.505 and the relative viability ([2]; first compound 1.265 µM) was 0.47. The relative viability ([2]; first compound 4 µM) was 0.324, the relative viability ([3]; first compound 0.04 µM) was 0.482 and the relative viability ([3]; first compound 0.1265 µM) was 0.443. The relative viability ([3]; first compound 0.4 µM) was 0.345, the relative viability ([3]; first compound 1.265 µM) was 0.243 and the relative viability ([3]; first compound 4 µM) was 0.272. For the same cell line, the relative viability ([4]; first compound 0.01 µM) was 0.299, the relative viability ([4]; first compound 0.03162 µM) was 0.301 and the relative viability ([4]; first compound 0.1 µM) was 0.36. It also gave a relative viability ([4]; first compound 1 µM) of 0.179.

Cell Line NCI-H1355 has a relative viability ([1]; first compound 0.04 µM) of 0.446, a relative viability ([1]; first compound 0.1265 µM) of 0.398 and a relative viability ([1]; first compound 0.4 µM) of 0.402. The relative viability ([1]; first compound 1.265 µM) was 0.331, the relative viability ([1]; first compound 4 µM) was 0.244 and the relative viability ([2]; first compound 0.04 µM) was 1.04. It also gave a relative viability ([2]; first compound 0.1265 µM) of 0.708, a relative viability ([2]; first compound 0.4 µM) of 0.757 and a relative viability ([2]; first compound 1.265 µM) of 0.795. It also gave a relative viability ([2]; first compound 4 µM) of 0.203, a relative viability ([3]; first compound 0.04 µM) of 0.397 and a relative viability ([3]; first compound 0.1265 µM) of 0.373. For the same cell line, the relative viability ([3]; first compound 0.4 µM) was 0.327, the relative viability ([3]; first compound 1.265 µM) was 0.274 and the relative viability ([3]; first compound 4 µM) was 0.21. For the same cell line, the relative viability ([4]; first compound 0.01 µM) was 0.843, the relative viability ([4]; first compound 0.03162 µM) was 0.728 and the relative viability ([4]; first compound 0.1 µM) was 0.753. It also gave a relative viability ([4]; first compound 0.3162 µM) of 0.706 and a relative viability ([4]; first compound 1 µM) of 0.814.

With NCI-H1395 the relative viability ([1]; first compound 0.04 µM) was 1.07, the relative viability ([1]; first compound 0.1265 µM) was 1.04 and the relative viability ([1]; first compound 0.4 µM) was 1.01. It also gave a relative viability ([1]; first compound 1.265 µM) of 0.453, a relative viability ([1]; first compound 4 µM) of 0.388 and a relative viability ([2]; first compound 0.04 µM) of 1.02. For the same cell line, the relative viability ([2]; first compound 0.1265 µM) was 1.28, the relative viability ([2]; first compound 0.4 µM) was 0.99 and the relative viability ([2]; first compound 1.265 µM) was 0.395. It also gave a relative viability ([2]; first compound 4 µM) of 0.42, a relative viability ([3]; first compound 0.04 µM) of 0.74 and a relative viability ([3]; first compound 0.1265 µM) of 0.645. It also gave a relative viability ([3]; first compound 0.4 µM) of 0.713, a relative viability ([3]; first compound 1.265 µM) of 0.358 and a relative viability ([3]; first compound 4 µM) of 0.402. For the same cell line, the relative viability ([4]; first compound 0.01 µM) was 0.669, the relative viability ([4]; first compound 0.03162 µM) was 0.596 and the relative viability ([4]; first compound 0.1 µM) was 0.677. It also gave a relative viability ([4]; first compound 0.3162 µM) of 0.667 and a relative viability ([4]; first compound 1 µM) of 0.644.

NCI-H1437 gave a relative viability ([1]; first compound 0.04 µM) of 0.538, a relative viability ([1]; first compound 0.1265 µM) of 0.486 and a relative viability ([1]; first compound 0.4 µM) of 0.325. It also gave a relative viability ([1]; first compound 1.265 µM) of 0.194, a relative viability ([1]; first compound 4 µM) of 0.191 and a relative viability ([2]; first compound 0.04 µM) of 1.2. It also gave a relative viability ([2]; first compound 0.1265 µM) of 1.01, a relative viability ([2]; first compound 0.4 µM) of 0.515 and a relative viability ([2]; first compound 1.265 µM) of 0.114. It also gave a relative viability ([2]; first compound 4 µM) of 0.249, a relative viability ([3]; first compound 0.04 µM) of 0.635 and a relative viability ([3]; first compound 0.1265 µM) of 0.538. It also gave a relative viability ([3]; first compound 0.4 µM) of 0.34, a relative viability ([3]; first compound 1.265 µM) of 0.257 and a relative viability ([3]; first compound 4 µM) of 0.229. For the same cell line, the relative viability ([4]; first compound 0.01 µM) was 1.15, the relative viability ([4]; first compound 0.03162 µM) was 1.2 and the relative viability ([4]; first compound 0.3162 µM) was 1.08. For the same cell line, the relative viability ([4]; first compound 1 µM) was 0.966.

In the case of NCI-H1651, the relative viability ([1]; first compound 0.04 µM) is reported as 0.803, the relative viability ([1]; first compound 0.1265 µM) is reported as 0.729 and the relative viability ([1]; first compound 0.4 µM) is reported as 0.729. It also gave a relative viability ([1]; first compound 1.265 µM) of 0.877, a relative viability ([1]; first compound 4 µM) of 0.238 and a relative viability ([2]; first compound 0.04 µM) of 1.03. For the same cell line, the relative viability ([2]; first compound 0.1265 µM) was 0.901, the relative viability ([2]; first compound 0.4 µM) was 0.429 and the relative viability ([2]; first compound 1.265 µM) was 0.0622. For the same cell line, the relative viability ([2]; first compound 4 µM) was 0.0566, the relative viability ([3]; first compound 0.04 µM) was 0.667 and the relative viability ([3]; first compound 0.1265 µM) was 0.638. For the same cell line, the relative viability ([3]; first compound 0.4 µM) was 0.528, the relative viability ([3]; first compound 1.265 µM) was 0.156 and the relative viability ([3]; first compound 4 µM) was 0.147. It also gave a relative viability ([4]; first compound 0.01 µM) of 0.827, a relative viability ([4]; first compound 0.03162 µM) of 0.682 and a relative viability ([4]; first compound 0.3162 µM) of 0.603. It also gave a relative viability ([4]; first compound 1 µM) of 0.171.
